The structures appear in SMILES notation.

The target of experiment [1] is T1, DDR2 (Homo sapiens, UniProt Q16832).
T1 sequence (Q16832 22-855): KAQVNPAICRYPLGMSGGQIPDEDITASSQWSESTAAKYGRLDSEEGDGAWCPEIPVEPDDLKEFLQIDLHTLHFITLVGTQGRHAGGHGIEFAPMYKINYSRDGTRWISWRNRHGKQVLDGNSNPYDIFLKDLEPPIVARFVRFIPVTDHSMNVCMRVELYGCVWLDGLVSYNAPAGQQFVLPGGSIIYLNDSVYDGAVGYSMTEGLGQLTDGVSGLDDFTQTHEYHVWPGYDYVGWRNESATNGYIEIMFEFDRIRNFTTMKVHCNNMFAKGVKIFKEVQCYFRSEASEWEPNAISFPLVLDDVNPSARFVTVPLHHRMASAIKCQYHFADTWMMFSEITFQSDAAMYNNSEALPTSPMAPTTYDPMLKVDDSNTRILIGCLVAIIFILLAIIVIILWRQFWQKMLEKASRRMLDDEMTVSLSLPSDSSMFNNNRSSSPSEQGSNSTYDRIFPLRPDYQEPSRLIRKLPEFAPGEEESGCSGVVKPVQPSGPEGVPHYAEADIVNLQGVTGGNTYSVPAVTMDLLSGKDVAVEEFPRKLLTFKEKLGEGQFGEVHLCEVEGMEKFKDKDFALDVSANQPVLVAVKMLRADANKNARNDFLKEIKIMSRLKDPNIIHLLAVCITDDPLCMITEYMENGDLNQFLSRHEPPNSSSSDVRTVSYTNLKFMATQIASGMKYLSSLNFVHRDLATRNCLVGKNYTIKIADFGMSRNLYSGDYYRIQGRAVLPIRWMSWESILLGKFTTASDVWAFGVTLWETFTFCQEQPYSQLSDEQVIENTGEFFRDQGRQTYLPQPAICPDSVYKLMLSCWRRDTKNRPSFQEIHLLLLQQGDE
The note with it: 1 μM; Run 1, Run 2.

For experiment [2], the target named is T2, c-MER (Homo sapiens, UniProt Q12866).
T2 sequence (Q12866 21-999): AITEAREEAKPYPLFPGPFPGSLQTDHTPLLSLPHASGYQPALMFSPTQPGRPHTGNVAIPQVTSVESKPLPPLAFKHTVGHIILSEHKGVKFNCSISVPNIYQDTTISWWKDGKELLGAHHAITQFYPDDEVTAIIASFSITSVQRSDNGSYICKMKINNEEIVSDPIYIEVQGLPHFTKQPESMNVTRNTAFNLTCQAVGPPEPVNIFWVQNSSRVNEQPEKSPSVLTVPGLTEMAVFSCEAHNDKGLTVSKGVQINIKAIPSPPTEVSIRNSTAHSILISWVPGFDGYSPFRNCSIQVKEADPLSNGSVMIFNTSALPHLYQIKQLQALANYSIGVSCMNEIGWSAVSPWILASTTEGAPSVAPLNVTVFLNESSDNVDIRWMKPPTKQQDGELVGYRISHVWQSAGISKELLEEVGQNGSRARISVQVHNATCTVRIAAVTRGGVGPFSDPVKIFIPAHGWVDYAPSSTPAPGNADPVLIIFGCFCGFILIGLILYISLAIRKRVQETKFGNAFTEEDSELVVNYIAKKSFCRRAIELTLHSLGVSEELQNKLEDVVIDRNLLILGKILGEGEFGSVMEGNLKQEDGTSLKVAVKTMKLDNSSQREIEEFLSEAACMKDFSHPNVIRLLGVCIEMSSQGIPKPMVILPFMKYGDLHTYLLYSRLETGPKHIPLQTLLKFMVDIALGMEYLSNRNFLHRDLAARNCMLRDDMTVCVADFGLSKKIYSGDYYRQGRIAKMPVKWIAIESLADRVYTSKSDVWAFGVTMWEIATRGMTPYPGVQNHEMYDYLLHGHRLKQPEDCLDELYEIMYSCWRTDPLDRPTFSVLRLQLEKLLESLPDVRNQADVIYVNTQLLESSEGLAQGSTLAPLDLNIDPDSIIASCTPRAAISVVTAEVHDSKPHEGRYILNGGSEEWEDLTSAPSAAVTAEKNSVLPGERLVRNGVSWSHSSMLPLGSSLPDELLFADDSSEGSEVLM
Kind of experiment: biochemical. As to conditions: read-out: % enzyme activity, 1 μM; Run 1, Run 2.

Experiment [3] has as its target LIMK1 (Homo sapiens, UniProt P53667). The experiment is described as follows: biochemical. As to conditions: read-out: % enzyme activity, 1 μM; Run 1, Run 2.
Experiment [4] has as its target SRMS (Homo sapiens, UniProt Q9H3Y6). The experiment is described as follows: biochemical. As to conditions: read-out: % enzyme activity, 1 μM; Run 1, Run 2.
The target of experiment [5] is EGFR (Homo sapiens, UniProt P00533). The note with it: 1 μM; Run 1, Run 2.
Experiment [6] addresses KDR/VEGFR2 (Homo sapiens, UniProt P35968). The note with it: 1 μM; Run 1, Run 2.
The target of experiment [7] is T3, ERK7/MAPK15 (Homo sapiens, UniProt Q8TD08).
T3 sequence (Q8TD08 1-544): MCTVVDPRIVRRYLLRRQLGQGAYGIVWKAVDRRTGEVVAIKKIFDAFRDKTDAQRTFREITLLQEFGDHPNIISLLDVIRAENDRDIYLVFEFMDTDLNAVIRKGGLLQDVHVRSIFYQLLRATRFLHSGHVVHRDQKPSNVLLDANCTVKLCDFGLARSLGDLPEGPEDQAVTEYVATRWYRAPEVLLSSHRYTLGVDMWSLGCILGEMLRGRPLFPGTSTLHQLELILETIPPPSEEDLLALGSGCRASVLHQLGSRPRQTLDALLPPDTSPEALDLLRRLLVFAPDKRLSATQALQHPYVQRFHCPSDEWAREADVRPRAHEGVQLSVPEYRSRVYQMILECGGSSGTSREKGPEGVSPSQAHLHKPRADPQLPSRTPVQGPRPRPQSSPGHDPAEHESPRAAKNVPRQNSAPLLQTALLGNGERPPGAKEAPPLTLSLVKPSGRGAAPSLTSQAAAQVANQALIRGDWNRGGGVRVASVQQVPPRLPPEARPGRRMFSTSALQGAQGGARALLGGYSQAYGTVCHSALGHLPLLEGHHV
The experiment is described as follows: biochemical. As to conditions: read-out: % enzyme activity, 1 μM; Run 1, Run 2.

In experiment [8] the target is EPHA5 (Homo sapiens, UniProt P54756). Kind of experiment: biochemical. The note with it: read-out: % enzyme activity, 1 μM; Run 1, Run 2.
Experiment [9] has as its target PDGFRb (Homo sapiens, UniProt P09619). As to conditions: 1 μM; Run 1, Run 2.
For experiment [10], the target named is NEK4 (Homo sapiens, UniProt P51957). Kind of experiment: biochemical. The note with it: read-out: % enzyme activity, 1 μM; Run 1, Run 2.
Experiment [11] has as its target TTBK2 (Homo sapiens, UniProt Q6IQ55). As to conditions: 1 μM; Run 1, Run 2.

PDGFRb, sequence (P09619 33-1106): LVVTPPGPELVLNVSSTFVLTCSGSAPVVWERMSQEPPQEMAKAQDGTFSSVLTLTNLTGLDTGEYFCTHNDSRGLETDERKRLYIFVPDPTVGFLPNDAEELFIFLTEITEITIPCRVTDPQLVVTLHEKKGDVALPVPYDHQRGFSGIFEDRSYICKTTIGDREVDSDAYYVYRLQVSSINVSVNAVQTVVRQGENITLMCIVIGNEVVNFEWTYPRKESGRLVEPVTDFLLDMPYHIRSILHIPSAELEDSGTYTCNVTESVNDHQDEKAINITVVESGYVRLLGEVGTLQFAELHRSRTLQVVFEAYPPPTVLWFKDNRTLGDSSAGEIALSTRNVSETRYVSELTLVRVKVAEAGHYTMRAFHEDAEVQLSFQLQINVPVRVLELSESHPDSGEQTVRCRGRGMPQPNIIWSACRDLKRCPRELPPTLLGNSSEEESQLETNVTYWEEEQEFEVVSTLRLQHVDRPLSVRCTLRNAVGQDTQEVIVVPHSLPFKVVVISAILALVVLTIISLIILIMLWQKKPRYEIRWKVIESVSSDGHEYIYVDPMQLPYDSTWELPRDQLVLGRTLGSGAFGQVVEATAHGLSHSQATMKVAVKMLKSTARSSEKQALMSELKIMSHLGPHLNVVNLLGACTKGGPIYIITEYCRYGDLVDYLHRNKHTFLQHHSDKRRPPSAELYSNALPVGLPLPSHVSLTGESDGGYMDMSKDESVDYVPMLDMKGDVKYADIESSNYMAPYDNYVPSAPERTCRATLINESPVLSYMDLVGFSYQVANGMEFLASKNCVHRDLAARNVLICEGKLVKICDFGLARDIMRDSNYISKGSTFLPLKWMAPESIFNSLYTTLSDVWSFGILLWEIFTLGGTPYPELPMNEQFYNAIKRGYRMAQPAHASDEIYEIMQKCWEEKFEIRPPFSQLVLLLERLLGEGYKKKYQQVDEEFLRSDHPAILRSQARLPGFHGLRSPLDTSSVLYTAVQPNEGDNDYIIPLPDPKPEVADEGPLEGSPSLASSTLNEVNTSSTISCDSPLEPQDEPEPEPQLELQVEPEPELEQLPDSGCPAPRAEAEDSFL
SRMS, sequence (Q9H3Y6 whole entry): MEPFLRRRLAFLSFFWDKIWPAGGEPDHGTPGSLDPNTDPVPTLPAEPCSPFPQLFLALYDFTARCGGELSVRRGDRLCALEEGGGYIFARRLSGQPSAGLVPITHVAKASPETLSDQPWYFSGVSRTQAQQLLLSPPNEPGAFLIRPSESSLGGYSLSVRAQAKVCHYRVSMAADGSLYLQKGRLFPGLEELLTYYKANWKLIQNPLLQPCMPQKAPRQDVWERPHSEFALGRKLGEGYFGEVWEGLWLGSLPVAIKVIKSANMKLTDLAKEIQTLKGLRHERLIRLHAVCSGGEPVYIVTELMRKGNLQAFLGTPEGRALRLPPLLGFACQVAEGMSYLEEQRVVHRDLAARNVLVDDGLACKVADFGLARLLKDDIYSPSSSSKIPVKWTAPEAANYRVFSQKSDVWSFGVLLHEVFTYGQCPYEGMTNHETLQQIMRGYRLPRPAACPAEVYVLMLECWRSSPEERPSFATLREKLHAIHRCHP
EPHA5, sequence (P54756 25-1037): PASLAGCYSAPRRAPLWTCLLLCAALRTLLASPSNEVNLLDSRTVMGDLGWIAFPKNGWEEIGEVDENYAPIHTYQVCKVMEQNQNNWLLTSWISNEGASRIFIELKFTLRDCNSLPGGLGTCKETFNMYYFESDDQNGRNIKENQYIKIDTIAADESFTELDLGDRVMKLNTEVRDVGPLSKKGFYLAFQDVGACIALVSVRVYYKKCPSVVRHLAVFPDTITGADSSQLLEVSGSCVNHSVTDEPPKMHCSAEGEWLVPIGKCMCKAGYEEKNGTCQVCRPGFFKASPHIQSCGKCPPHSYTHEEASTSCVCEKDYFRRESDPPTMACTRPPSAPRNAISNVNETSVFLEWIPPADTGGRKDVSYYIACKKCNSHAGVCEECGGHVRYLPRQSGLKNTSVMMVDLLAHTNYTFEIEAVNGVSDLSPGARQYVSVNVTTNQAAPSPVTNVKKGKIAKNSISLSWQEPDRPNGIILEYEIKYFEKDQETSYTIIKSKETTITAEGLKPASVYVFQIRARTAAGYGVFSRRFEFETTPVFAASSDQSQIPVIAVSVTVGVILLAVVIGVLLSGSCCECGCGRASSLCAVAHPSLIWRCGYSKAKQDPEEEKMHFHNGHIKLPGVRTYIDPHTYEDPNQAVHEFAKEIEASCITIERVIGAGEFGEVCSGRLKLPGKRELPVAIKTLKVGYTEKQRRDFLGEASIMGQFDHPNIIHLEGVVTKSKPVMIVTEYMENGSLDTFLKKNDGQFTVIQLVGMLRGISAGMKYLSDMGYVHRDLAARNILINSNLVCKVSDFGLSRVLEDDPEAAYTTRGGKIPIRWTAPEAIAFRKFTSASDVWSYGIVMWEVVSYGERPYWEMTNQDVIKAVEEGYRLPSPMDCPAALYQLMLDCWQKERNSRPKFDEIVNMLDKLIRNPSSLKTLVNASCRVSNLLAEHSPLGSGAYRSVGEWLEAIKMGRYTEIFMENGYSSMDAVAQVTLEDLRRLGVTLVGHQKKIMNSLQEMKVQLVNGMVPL
TTBK2, sequence (Q6IQ55 whole entry): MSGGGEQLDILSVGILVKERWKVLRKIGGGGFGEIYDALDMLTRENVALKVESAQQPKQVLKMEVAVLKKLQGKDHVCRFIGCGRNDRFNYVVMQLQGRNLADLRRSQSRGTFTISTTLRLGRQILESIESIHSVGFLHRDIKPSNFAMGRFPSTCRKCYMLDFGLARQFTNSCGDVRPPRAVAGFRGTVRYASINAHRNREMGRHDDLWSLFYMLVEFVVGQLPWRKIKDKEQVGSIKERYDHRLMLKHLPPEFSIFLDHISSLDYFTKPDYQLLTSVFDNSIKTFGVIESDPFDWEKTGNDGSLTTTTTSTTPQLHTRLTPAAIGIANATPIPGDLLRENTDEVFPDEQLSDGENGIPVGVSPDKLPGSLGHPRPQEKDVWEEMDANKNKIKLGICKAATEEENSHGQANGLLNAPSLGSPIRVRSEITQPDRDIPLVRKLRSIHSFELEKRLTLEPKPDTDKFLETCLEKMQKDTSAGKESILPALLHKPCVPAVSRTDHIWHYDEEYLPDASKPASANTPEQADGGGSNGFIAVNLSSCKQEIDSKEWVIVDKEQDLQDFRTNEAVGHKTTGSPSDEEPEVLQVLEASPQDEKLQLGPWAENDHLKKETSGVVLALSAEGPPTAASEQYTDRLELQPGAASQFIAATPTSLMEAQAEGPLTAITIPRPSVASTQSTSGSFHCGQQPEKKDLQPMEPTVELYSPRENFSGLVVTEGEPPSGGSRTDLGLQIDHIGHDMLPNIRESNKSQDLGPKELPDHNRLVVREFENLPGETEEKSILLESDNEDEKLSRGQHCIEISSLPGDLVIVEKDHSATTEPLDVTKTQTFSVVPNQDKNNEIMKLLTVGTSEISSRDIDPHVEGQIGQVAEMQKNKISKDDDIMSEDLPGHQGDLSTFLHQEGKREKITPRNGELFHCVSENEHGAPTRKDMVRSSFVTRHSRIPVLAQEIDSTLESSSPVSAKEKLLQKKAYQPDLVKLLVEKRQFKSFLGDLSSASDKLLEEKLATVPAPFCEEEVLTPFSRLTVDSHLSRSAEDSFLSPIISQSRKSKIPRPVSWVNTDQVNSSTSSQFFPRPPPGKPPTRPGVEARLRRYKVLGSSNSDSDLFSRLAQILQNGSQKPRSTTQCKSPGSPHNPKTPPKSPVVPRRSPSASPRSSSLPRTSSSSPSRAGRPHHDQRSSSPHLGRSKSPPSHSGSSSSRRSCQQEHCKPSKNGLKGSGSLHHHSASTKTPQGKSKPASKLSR
EGFR, sequence (P00533 25-1210): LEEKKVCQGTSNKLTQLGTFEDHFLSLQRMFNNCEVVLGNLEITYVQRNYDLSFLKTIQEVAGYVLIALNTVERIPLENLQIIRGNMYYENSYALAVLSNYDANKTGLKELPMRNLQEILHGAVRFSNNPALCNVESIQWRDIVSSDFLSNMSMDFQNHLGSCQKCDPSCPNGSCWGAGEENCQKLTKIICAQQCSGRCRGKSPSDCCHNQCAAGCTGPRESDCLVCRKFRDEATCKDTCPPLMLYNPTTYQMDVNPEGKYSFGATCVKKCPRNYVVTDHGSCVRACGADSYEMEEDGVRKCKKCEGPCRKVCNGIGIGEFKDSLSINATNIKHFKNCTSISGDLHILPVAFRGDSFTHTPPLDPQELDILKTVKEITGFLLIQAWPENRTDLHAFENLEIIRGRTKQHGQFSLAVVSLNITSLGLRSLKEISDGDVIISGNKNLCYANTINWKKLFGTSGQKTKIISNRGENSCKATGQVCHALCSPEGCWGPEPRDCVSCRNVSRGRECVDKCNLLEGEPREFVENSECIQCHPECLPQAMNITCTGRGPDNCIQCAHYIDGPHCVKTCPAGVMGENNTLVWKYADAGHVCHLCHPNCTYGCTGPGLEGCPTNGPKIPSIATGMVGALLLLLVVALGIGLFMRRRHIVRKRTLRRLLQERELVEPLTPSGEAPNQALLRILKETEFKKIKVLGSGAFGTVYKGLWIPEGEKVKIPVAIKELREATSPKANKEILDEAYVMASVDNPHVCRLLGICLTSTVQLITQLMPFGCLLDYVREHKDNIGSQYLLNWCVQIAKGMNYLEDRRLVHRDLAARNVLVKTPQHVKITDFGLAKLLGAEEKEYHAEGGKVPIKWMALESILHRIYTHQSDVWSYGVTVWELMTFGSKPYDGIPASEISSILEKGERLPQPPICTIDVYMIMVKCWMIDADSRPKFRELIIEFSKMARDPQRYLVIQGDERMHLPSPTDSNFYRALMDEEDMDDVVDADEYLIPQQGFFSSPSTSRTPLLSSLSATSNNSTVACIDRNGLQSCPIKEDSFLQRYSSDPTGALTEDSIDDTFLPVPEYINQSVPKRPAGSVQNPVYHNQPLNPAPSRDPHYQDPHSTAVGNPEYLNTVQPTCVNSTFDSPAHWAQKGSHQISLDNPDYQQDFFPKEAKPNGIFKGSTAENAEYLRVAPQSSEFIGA

Consider `COc1cc(-c2cncc(-c3ccc(N4CCN(C)CC4)cc3)c2C)cc(F)c1C(N)=O` [Compound 26a, 2-Fluoro-6-methoxy-4-(4-methyl-5-(4-(4-methylpiperazin-1-yl)phenyl)pyridin-3-yl)benzamide], for which the “% enzyme activity” value in experiment [1] is given as 96.68%; in [5], 95.66%; in experiment [6] it was 92.99%; in [9], 76.01%; in experiment [11], 94.62%. Further, the remaining activity at 1 µM in [2] came out at 100%; in [3], 65.1%; in experiment [4], 96.6%; in experiment [7] it was 86.8%; in experiment [8], 92.2%; in experiment [10], 98.5%.
Consider `COc1cc(-c2cncc(-c3ccc(N4C[C@@H](C)N(C)[C@@H](C)C4)cc3)c2C)cc(F)c1C(N)=O` [Compound 26c, 2-Fluoro-6-methoxy-4-(4-methyl-5-(4-((3R,5S)-3,4,5-trimethylpiperazin-1-yl)phenyl)pyridin-3-yl)benzamide], for which the “% enzyme activity” value in experiment [1] is reported as 92.27%; in experiment [5] it was 93.91%; in experiment [6], 85.59%; in experiment [9], 89.56%; in experiment [11], 96.48%. The remaining activity at 1 µM in experiment [2] came to 101%; in [3], 74.2%; in experiment [4], 96.1%; in experiment [7] it was 98.3%; in experiment [8], 92.7%; in experiment [10], 98%.
